Values joined by “and” are separate entries in the source; they are usually repeats but may differ in a detail not shown here. Identical values can stand only once. “Also recorded” adds a separate entry of the source.
Assays:
Plg GII = test: HTP 96-well SAXS titration: ligand-induced closed-to-open conformational change of Plg GII; format: biochemical, human; conditions: for Plg conformational change (efficacy in words) / Rg: HTP SAXS; for Plg conformational change (efficacy in words): 0.5 mg/mL Plg, pH 7.4, 16 °C, MK12 up to 10 mM; for Kopen: concentration of ligand at which 50% of Plg GII is open, 0.5 mg/mL Plg GII, 100 mM sodium phosphate pH 7.4, 5% glycerol, 15–30 min incubation, 16 °C, Rg from SAXS, fit with Hill slope; for Fold (GII/GI) of Kopen: Kopen Plg GII / Kopen Plg GI; for Kopen for GII higher than for GI: Kopen Plg GII versus Plg GI; for Kopen of EACA relative to TXA, GII: EACA versus TXA; for Kopen fold lower than L-lysine: Kopen for L-lysine 7.47 ± 1.12 mM; as to Rg: values in Å
Protocol: An HTP assay to study the kinetics of Plg conversion from a closed to an open state was established for this work using Plg GII (see Section 4 and Figure 2).
(§1) Figure 2 Overview of the high-throughput (HTP) kinetic studies of Plg conformational change. In this HTP assay, ligand-induced Plg conformational change is set up in a 96-well plate format. (a) Ligands at the study concentration are mixed with Plg and incubated for 30 min. (b,c) The samples flowed past the X-ray beam in a quartz capillary, and scattering images were collected. (d) The resulting 2D scattering profile is averaged and buffer subtracted. (e). Rg values are derived via Guinier analysis (f) and then normalized before plotting against ligand concentration. The plot is fitted to a multi-site binding model, and Kopen, the ligand concentration required to induce 50% open Plg, is derived. Kopen is a kinetic parameter indicative of ligand efficacy or stability of closed conformation.
(§2) EACA, TXA, and L-lysine were purchased from Sigma-Aldrich (St Louis, MO, USA), whereas peptides MK12, NK55, and CK10 were purchased from GL Biochem (Shanghai, China). Solutions of EACA, TXA, and L-lysine (0.5–1.0 M) were prepared in ultrapure water. The peptide ligands are slightly acidic and therefore were dissolved in 0.1 M NH4OH with gentle sonication. MK12 and CK10 were prepared as 20 mM stock solution, and NK55 was prepared as a 625 μM stock solution.
(§3) For the SEC-SAXS experiment, in-line size exclusion chromatography using a WTC-010S5 column (WYATT) with a co-flow setup was used. For the HTP assays, 1 mg/mL protein samples were mixed 1:1 (v/v) with effector solutions to a final volume of 50 μL in a 96-well plate and incubated for 15–30 min before data collection at 16 °C. The final protein concentration for these experiments was 0.5 mg/mL in the assay buffer unless otherwise specified.
For each sample, a matching buffer was used for background scatter subtraction. To minimize the effect of radiation damage, 50 μL samples were flowed past the X-ray beam in a 1.5 mm diameter quartz capillary at 4 μL.s^−1. Then, 15 to 20 2D scattering images were collected on a Pilatus 1M X-ray detector (Dectris, Baden-Daettwil, Swizerland) using 18 × 1 s exposures. The images were averaged, and the background was subtracted using the Scatterbrain software v.2.82 available at the Australian Synchrotron
For each titration series, the Rg values were normalized as follows: Normalized Rg=Rg− minimum Rg/maximum Rg− minimum Rg

[1] = in vivo, up to, no reference given; cited from earlier work
Source text: Importantly, our data support the notion that these lysine analogues can potentially outcompete the binding of Plg to its binding proteins Plg-RKT and α2AP (Figure S6) at a therapeutic dosage in vivo (plasma ...

Plg GI = test: HTP 96-well SAXS titration: ligand-induced closed-to-open conformational change of Plg GI; format: biochemical, human; conditions: for Kopen: concentration of ligand at which 50% of Plg GI is open, 0.5 mg/mL Plg, 100 mM sodium phosphate pH 7.4, 5% glycerol, 15–30 min incubation, 16 °C, Rg from SAXS
Protocol: as §1
Thus, we also performed kinetics studies on GI and GII to verify this hypothesis using EACA and TXA in the HTP format (Figure S4, Table 1).
as §2, §3
For each sample, a matching buffer was used for background scatter subtraction. To minimize the effect of radiation damage, 50 μL samples were flowed past the X-ray beam in a 1.5 mm diameter quartz capillary at 4 μL.s^−1. […]

Plg = Plg activation by tPA with chromogenic substrate S-2251 (Kactivation); conditions: Kactivation by tPA compared to Kopen; 0.25 μM Plg, 0.01 μM tPA, 1 h, 28 °C, 0.2 mM S-2251, A405 nm
[2] = tested on: Plg, mixed glycoform sample; conditions: cited from earlier work
Protocol: To analyze the transition profiles of Plg recorded from the fully closed to the fully open forms, we fitted the kinetic data as follows: the Rg of Plg GII in 0 mM EACA (32 Å) was defined as closed. The Rg of Plg in 20 m ...

[3] = SEC-SAXS and Guinier/P(r) analysis of Plg conformation; format: physicochemical, human; conditions: for Dmax (maximum diameter): P(r); for Rg (radius of gyration): SEC-SAXS, Guinier approximation; as to all read-outs here: values in Å
Protocol: Plg was isolated and purified from human plasma from Red Cross Blood Bank Australia via three-step purification as previously described. Plg GI and GII were prepared with a TXA gradient (Figure S3). Closed Plg was prepared via exhaustive dialysis of purified protein into the assay buffer (100 mM sodium phosphate pH 7.4, 5% glycerol). Proteins were concentrated to 1 mg/mL in centrifugal filters (Merck Millipore, Burlington, MA, USA). The final filtrate was kept as a solvent blank for SAXS experiments.
Experiments were performed at the Australian Synchrotron SAXS/WAXS beamline using a fixed energy of 12 keV and a camera length of 2.6 m.
as §3
Averaged SAXS data were processed with the ATSAS 2.7.2 software package (EMBL Hamburg, Germany). PRIMUS [33] was used for determining the radius of gyration (Rg) and protein molecular weight via Guinier approximation and the particle distance distribution function P(r) using indirect Fourier transform.

[4] = open conformation, 10 mM EACA (Figure 1)

Compound: 398NPSAPRELKEQQDSPGNKDFLQSLKGFPRGDKLFGPDLKLVPPMEEDYPQFGSPK452 [NK55, peptide corresponding to the last 55 residues of α2AP]
- Plg conformational change (efficacy in words) (Plg GII; Plg GII): confers a higher efficiency in inducing conformational change
- more efficacious than CK10 (Kopen) (Plg GII; Plg GII, versus CK10): ~ 10 fold
- more efficacious than L-lysine (Kopen) (Plg GII; Plg GII, versus L-lysine): ~ 100 fold
- Kopen (Plg GII): 0.08 ± 0.05 mM

Compound: 441MEEDYPQFGSPK452 [MK12, peptide corresponding to the last 12 residues of α2AP]
- Plg conformational change (efficacy in words) (Plg GII; Plg GII): did not observe any change in the SAXS profile of Plg GII; also recorded: could not detect any conformational change; also recorded: did not induce a conformational transition even at 10 mM; also recorded: not functional

Compound: NCCCCCC(=O)O [EACA, ε-aminocaproic acid]
- plasma concentration at therapeutic dosage [1]: ~ 10 mM
- Kopen of EACA relative to TXA, GI (Plg GI; Plg GI, EACA versus TXA): ~ 3 fold
- Kopen (Plg GI): 0.20 ± 0.01 mM
- Kactivation higher than Kopen (Plg): > 8 fold
- Kopen (previously reported) [2]: 0.45 mM
- Hill slope (Plg GII; EACA titration 0–20 mM, Plg GII, positive cooperativity): 1.5
- Fold (GII/GI) of Kopen (Plg GII): 1.75
- Kopen for GII higher than for GI (Plg GII): ~ 1.75 fold
- Kopen of EACA relative to TXA, GII (Plg GII; Plg GII): ~ 3 fold
- Kopen of EACA relative to TXA, GII (Plg GII; Plg GII, listed as ε-aminocaproic acid (EACA)): approximately three times greater than that of tranexamic acid (TXA)
- Kopen fold lower than L-lysine (Plg GII; Plg GII): 20 fold
- Kopen (Plg GII): 0.35 mM and 0.35 ± 0.02 mM

Compound: NCCCC[C@H](N)C(=O)O [L-lysine]
- Kopen fold relative to CK10 (Plg GII; L-lysine concentration required versus CK10, Plg GII): ~ 10 fold
- Kopen fold relative to EACA (Plg GII; L-lysine concentration required versus EACA, Plg GII): more than 20 fold
- Plg conformational change (efficacy in words) (Plg GII; Plg GII): poor substrate
- Kopen (Plg GII): 7.47 ± 1.12 mM

Compound: NC[C@H]1CC[C@H](C(=O)O)CC1 [TXA, tranexamic acid]
- plasma concentration at therapeutic dosage [1]: ~ 1 mM
- Kopen (Plg GI): 0.068 ± 0.002 mM
- Kactivation higher than Kopen (Plg): > 3.5 fold
- Fold (GII/GI) of Kopen (Plg GII): 1.76
- Kopen for GII higher than for GI (Plg GII): ~ 1.75 fold
- Plg conformational change (efficacy in words) (Plg GII; Plg GII): most efficacious ligand
- Kopen fold lower than L-lysine (Plg GII; Plg GII): 60 fold
- Kopen (Plg GII): 0.12 ± 0.008 mM

Compound: C139EQSKLFDSK147 [CK10, synthetic peptide corresponding to a C-terminal peptide of Plg-RKT]
- Plg conformational change (efficacy in words) (Plg GII; Plg GII): highly efficacious
- Kopen (Plg GII): 0.73 ± 0.24 mM

Compound: Plg GII: human plasminogen glycoform II, purified from human plasma
- Dmax (maximum diameter) ([3]; closed conformation (Figure 1)): 105 Å
- Dmax (maximum diameter) [3, 4]: 170 Å
- diameter of approximate spheroidal particle ([3]; Porod plot, closed conformation): ~78 Å
- Rg of closed Plg ([3]; SEC-SAXS comparison of closed GI and GII (Figure 5)): 31.8 ± 0.6 Å
- Rg (radius of gyration) ([3]; closed conformation (Figure 1)): 31.7 ± 0.11 Å
- Rg (radius of gyration) [3, 4]: 48.8 ± 0.9 Å
- conformational stability of closed form (Plg GII; GII versus GI, from Kopen of EACA and TXA, listed as GII): more stable than that of GI
- Rg (Plg GII; 0 mM EACA, defined as closed): 32 Å
- Rg (Plg GII; 20 mM EACA, defined as open): 49 Å
